In one test the test system is CT26 cells. The test can be described thus: Inhibition of proliferation of CT26 cells (CellTiter-Glo). Type of test: cell-based, mouse. To be noted: Mus musculus, 120 hours, CellTiter-Glo. As to the method:
CT26 cell is a mouse colorectal cancer cell line. This assay used the CellTiter-Glo Luminescence Cell Vitality Assay kit from Promega to evaluate the inhibitory activity of the compounds on the proliferation of CT26 cells.
In thawing the CT26 cells (ATCC #CRL-2638), a cell freezing tube was quickly shaken in a water bath at 37° C. to thaw the cells within 1 min. The thawed cell suspension was taken and evenly mixed with DMEM medium (GE, Cat #SH30243.01) containing 10% FBS (GIBCO, Cat #10099-141), centrifuged for 5 min at 1000 rpm, and the supernatant was discarded. The cell pellet was resuspended in 5 mL of the complete medium (DMEM medium containing 10% FBS), placed into a cell culture flask with a bottom area of 25 cm^2, and incubated in a cell incubator at 37° C., 5% CO2 and 95% humidity. When the cell confluence reached 70%˜80%, the cells were passaged. All the cells in the culture flask were transferred to a 15 mL centrifuge tube, centrifuged for 5 min at 1000 rpm, and the supernatant was discarded. 5 mL of fresh complete medium was added to re-suspend the cell pellet, 1 mL of which was taken to place in a cell culture flask with a bottom area of 25 cm^2, supplemented with 4 mL of fresh complete medium for further incubation. When the cell confluence reached 70%-80% again, plating was conducted following the procedure of cell passage, retaining 1/5 cell suspension for further inculation and remaining 4/5 of the cell suspension in a 15 mL centrifuge tube.
The cell suspension was centrifuged to discard the old culture medium, washed once using DMEM medium (serum-free), and centrifuged to remove the supernatant. The cells were then re-suspended in DMEM medium (serum-free). Cell viability was then detected by Trypan blue exclusion test and to be used for plating when the cell viability was confirmed to be more than 95%. A cell suspension with a density of 1.1×10^4 viable cells/mL was prepared using DMEM medium (serum-free), and 90 μL of the cell suspension was added to a 96-well 96-well transparent flat-bottomed black-walled cell culture plate (Corning, Cat #3603) so that the cell density in the plate was 1000 viable cells/well. A control group containing no cells, no compound, and complete medium only (i.e., a culture medium control), and a control group containing no compound but cells (i.e., a cell control) were set. The cell plates were placed in a cell incubator overnight.
(§1) A 10 mM stock solution of the compounds in DMSO was first serially diluted at 3.16-fold with DMSO (Sigma, Cat #D2650) to the 9th concentration, and the 10th concentration was set as DMSO control (compound-free). Then, the DMSO solutions containing different concentrations of the compounds were diluted at 10-fold with PBS (Solarbio, Cat #P1020) so that the DMSO content in each compound solution of various concentrations was 10%. Finally, 10 μL of each of such solutions was added into corresponding cell culture plate to provide an initial compound concentration of 100 μM, with the dilution fold of adjacent concentrations being 3.16 and the DMSO content in the cell culture plate being 1%. The cell plate was placed in a cell incubator for further 120 hours.
After 120 hours, the CellTiter-Glo reagent (Promega, Cat #G7572) was thawed and the plates were equilibrated at room temperature for 30 min. 100 uL of CellTiter-Glo was added to each well of the plate, and the cells were lysed thoroughly by shaking on an orbital shaker for 5 min. The plates were placed at room temperature for 20 min to stabilize the luminescence signal, and the luminescence value of each well was scanned at full wavelength with a multifunctional microplate reader (Molecular Devices, Spectramax M3). […]

Test [1] concerns IFN-β secretion by THP-1 cells. The test is described as follows: Activation of IFN-β secretion by THP-1 cells (Human IFN-beta ELISA). The class given is cell-based. To be noted: THP-1 cells, 24 hours, IFN-β ELISA. On the procedure:
THP-1 cell, a human monocytic leukemia cell line, has the STING phenotype of HAQ type, i.e., R71H-G230A-R293Q. This assay used the Human IFN-beta DuoSet ELISA Kit from R & D (R & D, Cat #DY814-05) and the DuoSet ELISA Ancillary Reagent Kit 2 (R & D, Cat #DY008) to evaluate the activation of IFN-β secretion from THP-1 cells by representative compounds of the invention.
In thawing the THP-1 cells (ATCC #TIB-202), a cell freezing tube was quickly shaken in a water bath at 37° C. to thaw the cells within 1 min. The thawed cell suspension was taken and evenly mixed with an RPMI1640 medium (Hyclone, product #SH30027.01) containing 10% FBS (Life Technology, Cat #10099-141), centrifuged for 5 min at 1000 rpm, and the supernatant was discarded. The cell pellet was resuspended in 5 mL of the complete medium (RPMI 1640 medium containing 10% FBS), placed into a cell culture flask with a bottom area of 25 cm^2, and incubated in a cell incubator at 37° C., 5% CO2 and 95% humidity. When the cell confluence reached about 80%, the cells were passaged. All the cells in the culture flask were transferred to a 15 mL centrifuge tube, centrifuged for 5 min at 1000 rpm, and the supernatant was discarded. 5 mL of fresh complete medium was added to re-suspend the cell pellet, 1 mL of which was taken to place in a cell culture flask with a bottom area of 25 cm^2, supplemented with 4 mL of fresh complete medium for further incubation. When the cell confluence reached about 80% again, plating was conducted following the procedure of cell passage, retaining 1/5 cell suspension for further inculation and remaining 4/5 of the cell suspension in a 15 mL centrifuge tube. The cell suspension was centrifuged to discard the old culture medium, washed once using RPMI1640 culture medium (serum-free), and centrifuged to remove the supernatant. The cells were then re-suspended in RPMI1640 culture medium (serum-free). Cell viability was then detected by Trypan blue exclusion test and to be used for plating when the cell viability was confirmed to be more than 95%. A cell suspension with a density of 1.1×10^6 viable cells/mL was prepared using RPMI1640 culture medium (serum-free), and 180 μL of the cell suspension was added to a 96-well cell culture plate (NUNC Company, Cat #167008) so that the cell density in the plate was 2×10^5 viable cells/well.
as §1, with “the 5th” for “the 9th”, “the 6th” for “the 10th”, “PBS” for “PBS (Solarbio, Cat #P1020)”, “Finally, 20” for “Finally, 10”, “further 24” for “further 120”
ELISA detection was conducted referring to the instructions from R & D System, Cat #DY814-05.
ELISA plate coating: PBS (R & D System Cat #DY006) was used to dilute the capture antibody (mouse anti-human IFN-β capture antibody PART #844508) to provide the working concentration, and 100 μL capture antibody working solution was added to a 96-well ELISA plate which was then sealed and incubated overnight at room temperature. Upon discarding the capture antibody working solution, the cell plate was washed 3 times with a washing buffer (0.05% Tween-20 in PBS, pH 7.2-7.4, R & D System Cat #WA126) at 400 μL of the washing buffer per well, and the washing buffer was thoroughly removed after each washing, with the final washing to be completely removed of the wash buffer by inverting and claping the plate to a clean piece of paper. […]

This note sets out measurements from patent publication US20240059729A1, “MULTIFUNCTIONAL CYCLIC DINUCLEOTIDE AND USE THEREOF” (TYLIGAND BIOSCIENCE (SHANGHAI) LIMITED, priority 2020, published 2024).

Structures are written as SMILES. Where a name gives a salt, the structure may show the parent alone.

Compound `Nc1nc(Cl)nc2c1ncn2[C@@H]1O[C@H](CO)[C@@H](O)[C@@H]1F` [Clofarabine—, clofarabine, reference compound] came in with an IC50 in the test on CT26 cells of less than 1 µM. Regarding `Nc1nc2c(ncn2[C@@H]2O[C@@H]3COP(=O)(O)O[C@H]4[C@@H](O)[C@H](n5cnc6c(N)ncnc65)O[C@@H]4COP(=O)(O)O[C@@H]2[C@@H]3O)c(=O)[nH]1` [2′,3′-cGAMP, cGAMP, reference compound], in test [1], the EC50 fell in the range of 10.1 to 100 µM. In test [1] (Homo sapiens, THP-1, 24 h), `Nc1nc2c(ncn2[C@@H]2O[C@@H]3CO[P@@](=O)(S)OC4C(F)[C@H](n5cnc6c(N)nc(Cl)nc65)O[C@@H]4CO[P@](=O)(S)OC2C3O)c(=O)[nH]1` (stereo partly drawn) [Example 8, (2′,3′)-cyclo-(Sp,Rp)-[2′-O-phosphorothioate-diester-guanosine]-[3′-O-phosphorothioate-diester-2-chloro-2′-deoxy-2′-fluoro-beta-adenosine] diammonium salt] displayed an EC50 of 10.1 to 100 µM. On the same count and under the same terms, under `Nc1nc2c(ncn2[C@@H]2O[C@@H]3CO[P@](=O)(S)OC4C(F)[C@H](n5cnc6c(N)nc(Cl)nc65)O[C@@H]4CO[P@](=O)(S)OC2C3O)c(=O)[nH]1` (stereo partly drawn) [Example 9, (2′,3′)-cyclo-(Sp,Sp)-[2′-O-phosphorothioate-diester-guanosine]-[3′-O-phosphorothioate-diester-2-chloro-2′-deoxy-2′-fluoro-beta-adenosine] diammonium salt] stands 10.1 to 100 µM. In the test with CT26 cells, `Nc1ncnc2c1ncn2[C@@H]1O[C@@H]2CO[P@@](=O)(S)OC3C(F)[C@H](n4cnc5c(N)nc(Cl)nc54)O[C@@H]3CO[P@@](=O)(S)OC2C1O` (stereo partly drawn) [Example 7, (3′,3′)-cyclo-(Rp,Rp)-[3′-O-phosphorothioate-diester-adenosine]-[3′-O-phosphorothioate-diester-2-chloro-2′-deoxy-2′-fluoro-beta-adenosine] diammonium salt] returned an IC50 of 1 to 10 µM.

`Nc1nc(Cl)nc2c1ncn2[C@H]1C[C@H](O)[C@@H](CO)O1` [Cladribine, cladribine, reference compound]: in the test on CT26 cells, the IC50 was less than 1 µM. In turn, `Nc1nc2c(ncn2[C@@H]2O[C@@H]3CO[P@@](=O)(S)OC4C[C@H](n5cnc6c(N)nc(Cl)nc65)O[C@@H]4CO[P@](=O)(S)OC2C3O)c(=O)[nH]1` (stereo partly drawn) [Example 11, (2′,3′)-cyclo-(Sp,Rp)-[2′-O-phosphorothioate-diester-guanosine]-[3′-O-phosphorothioate-diester-2-chloro-2′-deoxy-adenosine] diammonium salt] showed an EC50 in test [1] (Homo sapiens, THP-1, 24 h) of 10.1 to 100 µM. With `Nc1nc2c(ncn2[C@@H]2O[C@@H]3CO[P@@](=O)(S)OC4C(F)[C@H](n5cnc6c(N)nc(Cl)nc65)O[C@@H]4CO[P@](=O)(S)OC3C2O)c(=O)[nH]1` (stereo partly drawn) [Example 15, (3′,3′)-cyclo-(Sp,Rp)-[3′-O-phosphorothioate-diester-guanosine]-[3′-O-phosphorothioate-diester-2-chloro-2′-deoxy-2′-fluoro-beta-adenosine] diammonium salt], in test [1] (diammonium salt), the EC50 lay in the range of 10.1 to 100 µM. In the case of `CNc1nc(N)c2ncn([C@@H]3O[C@@H]4CO[P@@](=O)(S)O[C@H]5C(O)[C@@H](CO[P@@](=O)(S)O[C@@H]4C3F)O[C@H]5n3cnc4c(=O)[nH]c(N)nc43)c2n1` (stereo partly drawn) [Example 26, (2′,3′)-cyclo-(Rp,Rp)-[2′-O-phosphorothioate-diester-guanosine]-[3′-O-phosphorothioate-diester-2-methylamino-2′-deoxy-2′-fluoro-beta-adenosine] diammonium salt], the EC50 in test [1] (Homo sapiens, THP-1, 24 h) is 1 to 10 µM. In test [1] (Homo sapiens, THP-1, 24 h), `Nc1nc(Cl)nc2c1ncn2[C@@H]1O[C@@H]2CO[P@@](=O)(S)OC3[C@@H](CO[P@@](=O)(S)O[C@@H]2C1F)O[C@@H](n1cnc2c(N)ncnc21)[C@H]3F` (stereo partly drawn) [Example 18, (3′,3′)-cyclo-(Rp,Rp)-[3′-O-phosphorothioate-diester-2′-deoxy-2′-fluoroadenosine]-[3′-O-phosphorothioate-diester-2-chloro-2′-deoxy-2′-fluoro-beta-adenosine]-0.5-ammonium-1.5-1,8-diazabicycloundec-7-ene-salt] came in with an EC50 of 10.1 to 100 µM. In test [1] (Homo sapiens, THP-1, 24 h), `Nc1nc2c(ncn2[C@@H]2O[C@@H]3CO[P@@](=O)(S)OC4C[C@H](n5cnc6c(N)nc(Cl)nc65)O[C@@H]4CO[P@@](=O)(S)OC3C2F)c(=O)[nH]1` (stereo partly drawn) [Example 21, (3′,3′)-cyclo-(Rp,Rp)-[3′-O-phosphorothioate-diester-2′-deoxy-2′-fluoroguanosine]-[3′-O-phosphorothioate-diester-2-chloro-2′-deoxyadenosine] diammonium salt] gave an EC50 of 10.1 to 100 µM.

`Nc1ncnc2c1ncn2[C@@H]1O[C@@H]2CO[P@@](=O)(S)O[C@@H]3C[C@H](n4cnc5c(N)nc(Cl)nc54)O[C@@H]3CO[P@@](=O)(S)OC2[C@@H]1F` (stereo partly drawn) [Example 19, (3′,3′)-cyclo-(Rp,Rp)-[3′-O-phosphorothioate-diester-2′-deoxy-2′-fluoroadenosine]-[3′-O-phosphorothioate-diester-2-chloro-2′-deoxyadenosine] 0.5-1,8-diazabicycloundec-7-ene-salt] gave an EC50 in test [1] (Homo sapiens, THP-1, 24 h) of 10.1 to 100 µM.
